Reference: publication PMC10648541, “Design, Synthesis, and Antiproliferative Activity of Selective Histone Deacetylases 6 Inhibitors Containing a Tetrahydropyridopyrimidine Scaffold” (Molecules, 2023)
Read-outs that look alike come from different tables or passages of the source.

How the values were obtained:
[1] = tested on: RPMI-8226; experiment: Antiproliferative assay (Alamar blue, 72 h), RPMI-8226; assay type: cell-based, human; conditions: RPMI-8226 cells, three independent experiments, SD < 10%, read-out: Antiproliferative effect IC50, RPMI-8226
Procedure: The cells were cultured in IMDM (Gibco) medium with 20% FBS (Lonsera), 100 U/mL penicillin, and 100 µg/mL streptomycin (Solarbio). All cells were maintained at 37 °C in a humidified atmosphere of 5% CO2 in air. Briefly, 100 µL cell suspension or completed medium was plated into a 96-well plate. Compounds were added and incubated for 72 h. Then, 22 µL Alamar blue solution (1 mM) was pipetted into each well of a 96-well plate, and the plate was incubated for an additional 5~6 h. The absorbance (OD) was read at 530/590 nm. Data were normalized to vehicle groups (DMSO) and represented as the means of three independent measurements with standard errors of <20%. The IC50 values were calculated using Prism 5.0.

[2] = tested on: HCT116; experiment: Antiproliferative assay (Alamar blue, 72 h), HCT116; assay type: cell-based; conditions: Homo sapiens, HCT-116, HCT116 cells, three independent experiments, SD < 10%, read-out: Antiproliferative effect IC50, HCT116
[3] = tested on: HL60; experiment: Antiproliferative assay (Alamar blue, 72 h), HL60; assay type: cell-based; conditions: Homo sapiens, HL-60, HL60 cells, three independent experiments, SD < 10%, read-out: Antiproliferative effect IC50, HL60
[4] = molecular target: T1, HDAC1 (Homo sapiens, UniProt Q13547); experiment: In vitro HDAC enzyme assay (Reaction Biology Corporation), HDAC1; assay type: biochemical; conditions: Table 1; duplicate, SD < 15%
T1 construct: purchased Reaction Biology Corporation
T1 sequence (Q13547 whole entry): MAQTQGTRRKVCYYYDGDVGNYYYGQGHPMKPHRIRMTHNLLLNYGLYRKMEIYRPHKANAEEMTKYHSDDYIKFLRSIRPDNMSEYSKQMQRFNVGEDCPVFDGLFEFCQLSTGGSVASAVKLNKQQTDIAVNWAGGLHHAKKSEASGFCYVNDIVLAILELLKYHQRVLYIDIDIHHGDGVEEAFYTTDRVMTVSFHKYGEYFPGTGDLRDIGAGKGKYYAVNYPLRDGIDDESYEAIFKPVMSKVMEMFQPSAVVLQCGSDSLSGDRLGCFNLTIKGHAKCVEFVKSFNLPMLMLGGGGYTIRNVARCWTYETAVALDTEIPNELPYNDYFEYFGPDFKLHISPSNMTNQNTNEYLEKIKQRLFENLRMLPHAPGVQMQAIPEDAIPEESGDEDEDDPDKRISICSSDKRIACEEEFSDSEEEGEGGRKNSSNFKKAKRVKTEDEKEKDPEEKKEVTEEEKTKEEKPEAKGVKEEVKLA

[5] = molecular target: T2, HDAC6 (Homo sapiens, UniProt Q9UBN7); experiment: In vitro HDAC enzyme assay (Reaction Biology Corporation), HDAC6; assay type: biochemical; conditions: Table 1
T2 construct: purchased Reaction Biology Corporation
T2 sequence (Q9UBN7 1-1215): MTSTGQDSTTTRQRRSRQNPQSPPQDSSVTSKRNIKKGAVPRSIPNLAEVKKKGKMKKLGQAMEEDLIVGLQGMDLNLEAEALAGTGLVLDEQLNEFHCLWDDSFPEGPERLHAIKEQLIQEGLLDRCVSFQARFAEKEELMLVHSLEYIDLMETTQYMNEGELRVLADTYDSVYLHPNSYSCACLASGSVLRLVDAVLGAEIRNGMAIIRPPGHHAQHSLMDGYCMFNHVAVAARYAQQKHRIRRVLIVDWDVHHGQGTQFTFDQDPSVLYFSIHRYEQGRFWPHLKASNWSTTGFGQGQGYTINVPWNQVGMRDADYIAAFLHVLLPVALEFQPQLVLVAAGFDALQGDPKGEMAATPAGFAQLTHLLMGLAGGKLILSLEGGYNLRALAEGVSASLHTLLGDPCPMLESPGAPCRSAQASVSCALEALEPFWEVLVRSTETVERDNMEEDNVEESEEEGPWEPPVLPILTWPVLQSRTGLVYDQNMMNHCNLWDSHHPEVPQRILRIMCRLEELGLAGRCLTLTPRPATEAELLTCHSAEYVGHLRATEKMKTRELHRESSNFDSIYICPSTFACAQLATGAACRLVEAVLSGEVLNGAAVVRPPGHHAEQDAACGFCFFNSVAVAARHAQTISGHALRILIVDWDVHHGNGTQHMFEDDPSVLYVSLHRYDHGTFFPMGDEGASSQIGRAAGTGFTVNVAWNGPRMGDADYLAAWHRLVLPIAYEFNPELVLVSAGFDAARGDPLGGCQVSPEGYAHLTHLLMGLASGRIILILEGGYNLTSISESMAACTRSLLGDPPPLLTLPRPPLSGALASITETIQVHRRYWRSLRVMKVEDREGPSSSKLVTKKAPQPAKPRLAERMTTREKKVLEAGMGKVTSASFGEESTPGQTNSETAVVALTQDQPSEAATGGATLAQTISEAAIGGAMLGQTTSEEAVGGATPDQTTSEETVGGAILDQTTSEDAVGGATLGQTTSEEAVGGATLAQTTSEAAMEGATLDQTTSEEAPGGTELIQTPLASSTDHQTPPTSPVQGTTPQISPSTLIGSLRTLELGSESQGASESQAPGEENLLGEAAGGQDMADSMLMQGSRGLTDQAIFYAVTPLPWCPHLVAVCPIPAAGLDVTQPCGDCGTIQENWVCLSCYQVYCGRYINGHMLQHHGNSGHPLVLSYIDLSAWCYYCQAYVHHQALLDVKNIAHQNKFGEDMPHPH

[6] = tested on: acetylated histone 3 (H3); experiment: Western blot, acetylated histone 3 in RPMI-8226 cells; assay type: cell-based, human; conditions: 24 h, 10 μM, compared to the vehicle
Procedure: (§1) RPMI-8226 cells (1 × 10^6) were seeded overnight and incubated with compound 8f for 24 h on indicated concentrations. Cell extract was prepared by lysing cultured cells with a mammalian protein extraction reagent supplemented with EDTA-free protease inhibitor for 15 min. SDS-PAGE and immunoblot analysis were conducted as described. Antibodies for Ac-H3 (abcom, AB32129) and Ac-ɑ-tubulin (Cell Signaling, 2144) were used.

[7] = tested on: acetylated α-tubulin; experiment: Western blot, acetylated α-tubulin in RPMI-8226 cells; assay type: cell-based, human; conditions: 24 h, 10 μM, compared to the vehicle
Procedure: as §1

Structure (SMILES)	IC50 ([1]; Homo sapiens) [µM]	IC50 [2] [µM]	IC50 [3] [µM]	melting point [°C]	other results
O=C(CCCCCCNC(=O)c1cnc(N(c2ccccc2)c2ccccc2)nc1)NO [Compound 1, reference compound]	1.7	6.5	4.1		
COc1ccc(-c2nc3c(c(-c4ccc(OC)cc4)n2)CCN(C(=O)CCCCCCC(=O)NO)C3)cc1 [Compound 8c, 8-(2,4-Bis(4-methoxyphenyl)-5,8-dihydropyrido [3,4-d]pyrimidin-7(6H)-yl)-N-hydroxy-8-oxooctanamide]	4.63	4.72	3.78	117 to 118	IC50 [4]: 0.472 µM
O=C(CCCCCCC(=O)N1CCc2c(nc(-c3ccc(C(F)(F)F)cc3)nc2-c2ccc(C(F)(F)F)cc2)C1)NO [Compound 8h, 8-(2,4-Bis(4-(trifluoromethyl)phenyl)-5,8-dihydropyrido [3,4-d]pyrimidin-7(6H)-yl)-N-hydroxy-8-oxooctanamide]				145 to 146	Selectivity Index ([5]; HDAC6 against HDAC1): 26; IC50 ([5]; duplicate, SD < 15%): 0.0215 µM; IC50 [4]: 0.551 µM
O=C(CCCCCCC(=O)Nc1ccccc1)NO [SAHA, reference compound]					levels of acetylated histone H3 [6]: increased levels of both acetylated α-tubulin and acetylated histone H3 significantly; levels of acetylated α-tubulin [7]: increased levels of both acetylated α-tubulin and acetylated histone H3 significantly; IC50 [1]: 0.66 µM

More lines, main results first:

IC50 ([1]; Homo sapiens) [µM]	IC50 [2] [µM]	IC50 [3] [µM]	melting point [°C]	Structure (SMILES)	other results
16.3	23.4	12.5	115 to 117	O=C(CCCCCCC(=O)N1CCc2c(nc(-c3ccccc3)nc2-c2ccccc2)C1)NO [Compound 8a, 8-(2,4-Diphenyl-5,8-dihydropyrido [3,4-d]pyrimidin-7(6H)-yl)-N-hydroxy-8-oxooctanamide]	
			110 to 112	Cc1ccc(-c2nc3c(c(-c4ccc(C)cc4)n2)CCN(C(=O)CCCCCCC(=O)NO)C3)cc1 [Compound 8b, 8-(2,4-di-p-tolyl-5,8-dihydropyrido [3,4-d]pyrimidin-7(6H)-yl)-N-hydroxy-8-oxooctanamide]	
			104 to 106	O=C(CCCCCCC(=O)N1CCc2c(nc(-c3ccoc3)nc2-c2ccoc2)C1)NO [Compound 8d, 8-(2,4-Di(furan-3-yl)-5,8-dihydropyrido [3,4-d]pyrimidin-7(6H)-yl)-N-hydroxy-8-oxooctanamide]	
			123 to 124	O=C(CCCCCCC(=O)N1CCc2c(nc(-c3ccsc3)nc2-c2ccsc2)C1)NO [Compound 8e, 8-(2,4-Di(thiophen-3-yl)-5,8-dihydropyrido [3,4-d]pyrimidin-7(6H)-yl)-N-hydroxy-8-oxooctanamide]	
			128 to 129	O=C(CCCCCCC(=O)N1CCc2c(nc(-c3cccs3)nc2-c2cccs2)C1)NO [Compound 8g, 8-(2,4-Di(thiophen-2-yl)-5,8-dihydropyrido [3,4-d]pyrimidin-7(6H)-yl)-N-hydroxy-8-oxooctanamide]	
